Data reported in patent publication US8999970B2, “Administration of an anti-obesity compound to individuals with renal impairment” (Arena Pharmaceuticals, Inc., priority 2010, dated 2015).
“Also recorded” adds a separate entry of the source.

Key:
[1] = Clinical trial APD356-016: plasma and urine pharmacokinetics of lorcaserin, M1 and M5 after a 10 mg dose in subjects with renal impairment; details: for Ae0-120 / fe0-120: urine; for CL renal / AUC(0-t) / Cmax / half-life / AUC0-inf / MRT inf / Vd/F / tmax: human, 10 mg; for CL renal: plasma and urine, ClR/F; for AUC(0-t) / Cmax / half-life / AUC0-inf / MRT inf / Vd/F / tmax: plasma; for MRT inf: MRTinf; for Vd/F: Vz/F; for tmax: median
Outline: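 Single 10 mg lorcaserin dose in subjects grouped by renal function; plasma and urine sampled for lorcaserin, M1 and M5. Groups set by creatinine clearance from ideal body weight, with actual-weight regrouping also summarised; the dialysis subject counted as end-stage renal disease.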

[2] = Modeled steady state exposures following lorcaserin 10 mg BID (simulations and noncompartmental analysis from QD data); details: 10 mg BID Simulation, Steady State
Method: To better assess the potential implications of M1 and M5 levels in patients, steady state exposures (i.e. the state of equilibrium obtained at the end of a certain number of dosings) following lorcaserin 10 mg twice daily (BID) dosing were modeled using simulations and noncompartmental analysis based on data from pharmacokinetic studies with once daily (QD) dosing.
To better assess the potential implications of M1 levels in subjects with renal impairment, steady state M1 exposure following lorcaserin 10 mg BID administration was modeled using simulations and noncompartmental analysis based upon data from pharmacokinetic studies with once daily (QD) dosing. This modeling is discussed below in Example 5.
To better assess the potential implications of M1 and M5 levels, steady state exposures following lorcaserin 10 mg BID dosing were modeled using simulations and noncompartmental analysis based upon data from pharmacokinetic studies with once daily (QD) dosing.

[3] = 10 mg dose, Mild, actual BW groups
[4] = 10 mg dose, Mild, ideal BW groups
[5] = 10 mg dose, Moderate, actual BW groups
[6] = 10 mg dose, Moderate, ideal BW groups
[7] = 10 mg dose, Normal, actual BW groups
[8] = 10 mg dose, Normal, ideal BW groups
[9] = 10 mg dose, Severe N = 1, actual BW groups
[10] = 10 mg dose, Severe, ideal BW groups
[11] = Moderate N = 8, actual BW groups
[12] = oral, 10 mg dose, Mild, actual BW groups
[13] = oral, 10 mg dose, Mild, ideal BW groups
[14] = oral, 10 mg dose, Moderate, actual BW groups
[15] = oral, 10 mg dose, Moderate, ideal BW groups
[16] = oral, 10 mg dose, Normal, actual BW groups
[17] = oral, 10 mg dose, Normal, ideal BW groups
[18] = oral, 10 mg dose, Severe N = 1, actual BW groups
[19] = oral, 10 mg dose, Severe, ideal BW groups

Compound: C[C@H]1CNCCc2ccc(Cl)cc21 [Lorcaserin, (R)-8-chloro-1-methyl-2,3,4,5-tetrahydro-1H-3-benzazepine]
- % AUC0-inf Extrapolated [1, 3]: 4.54%
- Cl/F [1, 3]: 17.3 L/h
- ClNR/F [1, 3]: 16.7 L/h
- T1/2z [1, 3]: 14.6 h
- % AUC0-inf Extrapolated [1, 4]: 3.36%
- Cl/F [1, 4]: 13.3 L/h
- ClNR/F [1, 4]: 12.8 L/h
- T1/2z [1, 4]: 13.0 h
- % AUC0-inf Extrapolated [1, 5]: 3.74%
- Cl/F [1, 5]: 18.9 L/h
- ClNR/F [1, 5]: 18.2 L/h
- T1/2z [1, 5]: 14.9 h
- % AUC0-inf Extrapolated [1, 6]: 4.92%
- Cl/F [1, 6]: 17.7 L/h
- ClNR/F [1, 6]: 17.0 L/h
- T1/2z [1, 6]: 15.9 h
- % AUC0-inf Extrapolated [1, 7]: 3.57%
- Cl/F [1, 7]: 15.6 L/h
- ClNR/F [1, 7]: 15.1 L/h
- T1/2z [1, 7]: 12.1 h
- % AUC0-inf Extrapolated [1, 8]: 3.81%
- Cl/F [1, 8]: 17.5 L/h
- ClNR/F [1, 8]: 17.1 L/h
- T1/2z [1, 8]: 11.0 h
- % AUC0-inf Extrapolated [1, 9]: 3.70%
- Cl/F [1, 9]: 17.6 L/h
- ClNR/F [1, 9]: 17.2 L/h
- T1/2z [1, 9]: 18.8 h
- % AUC0-inf Extrapolated [1, 10]: 3.59%
- Cl/F [1, 10]: 19.7 L/h
- ClNR/F [1, 10]: 19.0 L/h
- T1/2z [1, 10]: 15.0 h
- Ae0-120 [1, 3]: 297 µg
- fe0-120 [1, 3]: 0.0352
- Ae0-120 [1, 4]: 326 µg
- fe0-120 [1, 4]: 0.0386
- Ae0-120 [1, 5]: 304 µg
- fe0-120 [1, 5]: 0.0360
- Ae0-120 [1, 6]: 327 µg
- fe0-120 [1, 6]: 0.0387
- Ae0-120 [1, 7]: 257 µg
- fe0-120 [1, 7]: 0.0304
- Ae0-120 [1, 8]: 185 µg
- fe0-120 [1, 8]: 0.0220
- Ae0-120 [1, 9]: 204 µg
- fe0-120 [1, 9]: 0.0242
- Ae0-120 [1, 10]: 280 µg
- fe0-120 [1, 10]: 0.0332
- Removal by hemodialysis ([1]; ESRD): not removed; also recorded: not cleared
- Geometric Mean Ratio of LSM (90% CI), AUC0-inf, relative to Normal Renal Function Group ([1]; Mild N = 10, actual BW groups): 0.921 (0.735, 1.15)
- Geometric Mean Ratio of LSM (90% CI), AUClast, relative to Normal Renal Function Group ([1]; Mild N = 10, actual BW groups): 0.912 (0.723, 1.15)
- Geometric Mean Ratio of LSM (90% CI), Cmax, relative to Normal Renal Function Group ([1]; Mild N = 10, actual BW groups): 0.819 (0.652, 1.03)
- Geometric Mean Ratio of LSM (90% CI), AUC0-inf, relative to Normal Renal Function Group ([1]; Mild, ideal BW groups): 1.30 (1.01, 1.67)
- Geometric Mean Ratio of LSM (90% CI), AUClast, relative to Normal Renal Function Group ([1]; Mild, ideal BW groups): 1.31 (1.01, 1.69)
- Geometric Mean Ratio of LSM (90% CI), Cmax, relative to Normal Renal Function Group ([1]; Mild, ideal BW groups): 0.991 (0.764, 1.29)
- Geometric Mean Ratio of LSM (90% CI), AUC0-inf, relative to Normal Renal Function Group [1, 11]: 0.869 (0.683, 1.11)
- Geometric Mean Ratio of LSM (90% CI), AUClast, relative to Normal Renal Function Group [1, 11]: 0.868 (0.678, 1.11)
- Geometric Mean Ratio of LSM (90% CI), Cmax, relative to Normal Renal Function Group [1, 11]: 0.738 (0.579, 0.941)
- Geometric Mean Ratio of LSM (90% CI), AUC0-inf, relative to Normal Renal Function Group ([1]; Moderate, ideal BW groups): 1.03 (0.806, 1.32)
- Geometric Mean Ratio of LSM (90% CI), AUClast, relative to Normal Renal Function Group ([1]; Moderate, ideal BW groups): 1.02 (0.791, 1.32)
- Geometric Mean Ratio of LSM (90% CI), Cmax, relative to Normal Renal Function Group ([1]; Moderate, ideal BW groups): 0.697 (0.537, 0.904)
- Geometric Mean Ratio of LSM (90% CI), AUC0-inf, relative to Normal Renal Function Group ([1]; Severe N = 1, actual BW groups): 0.861 (0.494, 1.50)
- Geometric Mean Ratio of LSM (90% CI), AUClast, relative to Normal Renal Function Group ([1]; Severe N = 1, actual BW groups): 0.861 (0.487, 1.52)
- Geometric Mean Ratio of LSM (90% CI), Cmax, relative to Normal Renal Function Group ([1]; Severe N = 1, actual BW groups): 0.468 (0.267, 0.821)
- Geometric Mean Ratio of LSM (90% CI), AUC0-inf, relative to Normal Renal Function Group ([1]; Severe, ideal BW groups): 0.931 (0.727, 1.19)
- Geometric Mean Ratio of LSM (90% CI), AUClast, relative to Normal Renal Function Group ([1]; Severe, ideal BW groups): 0.933 (0.723, 1.20)
- Geometric Mean Ratio of LSM (90% CI), Cmax, relative to Normal Renal Function Group ([1]; Severe, ideal BW groups): 0.686 (0.529, 0.891)
- CL renal [1, 12]: 10.3 mL/min
- CL renal [1, 13]: 8.88 mL/min
- CL renal [1, 14]: 11.1 mL/min
- CL renal [1, 15]: 11.1 mL/min
- CL renal [1, 16]: 7.8 mL/min
- CL renal [1, 17]: 6.53 mL/min
- CL renal [1, 18]: 7.27 mL/min
- CL renal [1, 19]: 11 mL/min
- AUC(0-t) ([1]; AUC24 hr, ESRD, 10 mg QD Authentic, Day 1): 0.618 µg·h/mL
- AUC(0-t) ([1]; AUC24 hr, Mild, 10 mg QD Authentic, Day 1): 0.623 µg·h/mL
- AUC(0-t) ([1]; AUC24 hr, Moderate, 10 mg QD Authentic, Day 1): 0.515 µg·h/mL
- AUC(0-t) ([1]; AUC24 hr, Normal, 10 mg QD Authentic, Day 1): 0.482 µg·h/mL
- AUC(0-t) ([1]; AUC24 hr, Severe, 10 mg QD Authentic, Day 1): 0.469 µg·h/mL
- Cmax ([1]; ESRD, 10 mg QD Authentic, Day 1): 0.0272 µg/mL
- Cmax ([1]; Mild, 10 mg QD Authentic, Day 1): 0.0363 µg/mL
- Cmax ([1]; Moderate, 10 mg QD Authentic, Day 1): 0.0262 µg/mL
- Cmax ([1]; Normal, 10 mg QD Authentic, Day 1): 0.037 µg/mL
- Cmax ([1]; Severe, 10 mg QD Authentic, Day 1): 0.0264 µg/mL
- half-life ([1]; t1/2, ESRD, 10 mg QD Authentic, Day 1): 43.8 h
- half-life ([1]; t1/2, Mild, 10 mg QD Authentic, Day 1): 13 h
- half-life ([1]; t1/2, Moderate, 10 mg QD Authentic, Day 1): 15.9 h
- half-life ([1]; t1/2, Normal, 10 mg QD Authentic, Day 1): 11 h
- half-life ([1]; t1/2, Severe, 10 mg QD Authentic, Day 1): 15 h
- AUC0-inf [1, 12]: 0.535 µg·h/mL
- AUC0-inf [1, 13]: 0.644 µg·h/mL
- AUC0-inf [1, 14]: 0.516 µg·h/mL
- AUC0-inf [1, 15]: 0.538 µg·h/mL
- AUC0-inf [1, 16]: 0.569 µg·h/mL
- AUC0-inf [1, 17]: 0.501 µg·h/mL
- AUC0-inf [1, 18]: 0.478 µg·h/mL
- AUC0-inf [1, 19]: 0.486 µg·h/mL
- AUC(0-t) ([1]; oral, AUC0-t, 10 mg dose, Mild, actual BW groups): 0.513 µg·h/mL
- AUC(0-t) ([1]; oral, AUC0-t, 10 mg dose, Mild, ideal BW groups): 0.623 µg·h/mL
- AUC(0-t) ([1]; oral, AUC0-t, 10 mg dose, Moderate, actual BW groups): 0.497 µg·h/mL
- AUC(0-t) ([1]; oral, AUC0-t, 10 mg dose, Moderate, ideal BW groups): 0.515 µg·h/mL
- AUC(0-t) ([1]; oral, AUC0-t, 10 mg dose, Normal, actual BW groups): 0.549 µg·h/mL
- AUC(0-t) ([1]; oral, AUC0-t, 10 mg dose, Normal, ideal BW groups): 0.482 µg·h/mL
- AUC(0-t) ([1]; oral, AUC0-t, 10 mg dose, Severe N = 1, actual BW groups): 0.461 µg·h/mL
- AUC(0-t) ([1]; oral, AUC0-t, 10 mg dose, Severe, ideal BW groups): 0.469 µg·h/mL
- Cmax [1, 12]: 0.0302 µg/mL
- Cmax [1, 13]: 0.0363 µg/mL
- Cmax [1, 14]: 0.0276 µg/mL
- Cmax [1, 15]: 0.0262 µg/mL
- Cmax [1, 16]: 0.036 µg/mL
- Cmax [1, 17]: 0.037 µg/mL
- Cmax [1, 18]: 0.0164 µg/mL
- Cmax [1, 19]: 0.0264 µg/mL
- MRT inf [1, 12]: 19.3 h
- MRT inf [1, 13]: 18 h
- MRT inf [1, 14]: 20.8 h
- MRT inf [1, 15]: 21.1 h
- MRT inf [1, 16]: 16.5 h
- MRT inf [1, 17]: 14.8 h
- MRT inf [1, 18]: 30.8 h
- MRT inf [1, 19]: 21.7 h
- Vd/F [1, 12]: 361 L
- Vd/F [1, 13]: 248 L
- Vd/F [1, 14]: 381 L
- Vd/F [1, 15]: 399 L
- Vd/F [1, 16]: 266 L
- Vd/F [1, 17]: 276 L
- Vd/F [1, 18]: 479 L
- Vd/F [1, 19]: 401 L
- tmax [1, 12]: 2.5 h
- tmax [1, 13]: 4.5 h
- tmax [1, 14]: 2.5 h
- tmax [1, 15]: 2.5 h
- tmax [1, 16]: 2 h
- tmax [1, 17]: 2 h
- tmax [1, 18]: 4 h
- tmax [1, 19]: 3 h
- Fractional excretion ([1]; normal renal function): 2.2%
- AUC24 hr ([2]; ESRD): 1.86 µg·h/mL
- Cmax ([2]; ESRD): 0.0876 µg/mL
- t1/2 ([2]; ESRD): 24.8 h
- AUC24 hr ([2]; Mild): 1.27 µg·h/mL
- Cmax ([2]; Mild): 0.0641 µg/mL
- t1/2 ([2]; Mild): 12.0 h
- AUC24 hr ([2]; Moderate): 0.935 µg·h/mL
- Cmax ([2]; Moderate): 0.0495 µg/mL
- t1/2 ([2]; Moderate): 11.5 h
- AUC24 hr ([2]; Normal): 0.942 µg·h/mL
- Cmax ([2]; Normal): 0.0558 µg/mL
- t1/2 ([2]; Normal): 8.28 h
- AUC24 hr ([2]; Severe): 0.835 µg·h/mL
- Cmax ([2]; Severe): 0.0409 µg/mL
- t1/2 ([2]; Severe): 12.8 h
